Tests used:
DUOX = assay: In vivo ROS detection in gut epithelia (HOCl-specific R19S staining, ratio of ROS-positive guts); set-up: species or system Drosophila
Excerpt: R19S, a recently developed HOCl-specific rhodamine-based dye, was used in this experiment (Chen et al., Chem Commun (Camb) 47, pp. 4373-4375, 2011). R19S was purchased from Futurechem (Seoul, South Korea). […]
Furthermore, to measure the basal level of ROS in germ-free animals, Drosophila monoassociated with each bacterium (C. intestini, A. pomorum, L. plantarum, G. morbifer, G. morbifer-carA::Tn5, L. brevis, or L. brevisΔcarA) were experimented with as disclosed above. A 5% sucrose solution containing 10 μM of R19S was orally administered to the monoassociated Drosophila (13 days old) for 90 minutes.
Following the R19S ingestion, the midguts were dissected and fixed with 4% formaldehyde. The level of HOCl (ROS level) was visualized by LSM700 confocal microscopy (Carl Zeiss).
For all of the experiments, R19S-positive guts in each animal group (n=approx. 20) were measured by each independent experiment, and data was indicated by at least three repeated and independent experiments. The number of R19S-positive guts in regard to the total numbers of gut samples was indicated as the ratio of ROS-positive guts.

Ce-DUOX1 = assay: ROS (DUOX-dependent H2O2) measurement in C. elegans; type: in vivo; details: uracil-containing media, 2 hours
Excerpt: C. elegans were raised and maintained as disclosed in the previous research (Chavez et al., Infect Immun 77, pp. 4983-4989, 2009). As disclosed in the previous research, L1 nematodes were fed with bacteria containing Ce-DUOX1-RNAi vectors throughout the step L4 to introduce Ce-DUOX1-RNAi (Chavez et al., Infect Immun 77, pp. 4983-4989, 2009). Standard feeding system RNAi process using Ce-DUOX1-RNAi may cause a developmental disability which indicates a serious level of mortality. As disclosed in the previous research, to give a partial knock-down effect, Ce-DUOX1-RNAi bacteria were mixed with bacteria containing control RNAi at a ratio of 1:70. In the early adult stage, nematodes were obtained and washed with M9 minimal media. Nematodes (about 200 to 300 individuals) were placed in a 96-well plate comprising uracil-containing media ([…]) at 20° C. for 2 hours.
DUOX-dependent H2O2, as basically disclosed in the previous research (Chavez et al., Infect Immun 77, pp. 4983-4989, 2009), was measured at room temperature for 2 hours following addition of […] of Amplex UltraRed solution (Invitrogen) and […] of reacting buffer including 0.2 units/mL of horseradish peroxidase (Sigma). Fluorescence of each sample was measured by fluorescent microplate readers at 530 nm of excitation wavelength and 590 nm of emission wavelength. […]

p38 = p38 activation by phospho-p38 immune staining of midgut; type: in vivo, Drosophila; details: uracil 20 nM for 2 hours
Description: To examine uracil-induced p38 activation, a 5% sucrose solution containing 20 nM of uracil was orally administered to genetically different adult Drosophila (5 to 6 days old) for 2 hours. Midguts were dissected in PBS and fixed with 4% paraformaldehyde for 15 minutes. The midguts were washed three times with PBS containing 0.1% of Triton X-100 for 5 minutes and were cultured in the above solution with additional 5% cow blood serum albumin for 1 hour. Next, the sample was cultured with additional phospho-specific anti-p38 antibody (1:500 dilution; Millipore, Milford, Mass., USA) at 4° C. for 16 hours. The sample was washed five times with PBS containing 0.1% Triton X-100 for 5 minutes and cultured at room temperature for 20 minutes after adding secondary antibodies (1:500 dilution; Alexa Fluor 568 goat anti-rabbit IgG; Invitrogen, Carlsbad, Calif., USA). After washing the sample three times with PBS containing 0.1% Triton X-100 for 5 minutes, the sample was mounted with mounting buffer solution (Vectorshield, Vector Laboratories Inc., Burlingame, Calif., USA) and was analyzed by LSM 700 confocal microscopy (Carl Zeiss, Oberkochen, Germany)

gut cells = details: in vivo
Description: To measure cell apoptosis in gut cells caused by a long-term exposure to uracil, genetically different germ-free adult Drosophila (5 to 6 days old) were maintained on the standard corn meal agar media with a supplemental 1 nM of uracil for 20 days.
Midguts of female Drosophila (20 days old) collected above were used for the analysis of cell apoptosis. Midguts were dissected in PBS, and cell apoptosis analysis was conducted by terminal deoxynucleotidyl transferase (TdT)-mediated dUDP nick end labeling method as disclosed in the previous research (Ryu et al., Science 319, pp. 777-782, 2008).
The cell apoptotic index was indicated by dividing the number of apoptotic cells with respect to the total number of cells and multiplying the value by 100.

Drosophila S2 cells = assay: Measurement of intracellular calcium (fura-2); type: cell-based; details: uracil 20 nM
Description: Intracellular Ca^2+ was measured by the method disclosed in the previous research (Rosker et al., J Biol Chem 279, pp. 13696-13704, 2004). Briefly speaking, Drosophila S2 cells (approx. 10^8 cells) were loaded with pH 7.4 buffer containing 10 mM glucose, 140 mM NaCl, 1 mM CaCl2, 5 mM KCl, 1 mM MgCl2, and 10 mM HEPES and the solution was treated with […] fura-2-acetoxymethyl ester for 40 minutes at room temperature. The cells were washed twice with pH 7.4 Ca^2+ chelating buffer containing 10 mM glucose, 140 mM NaCl, 1 mM EDTA, 1 mM EGTA, 5 mM KCl, 1 mM MgCl2, and 10 mM HEPES, and were re-suspended in the same buffer. Then, 20 nM of uracil was added to the cells. Fluorescence was continuously recorded at an interval of 0.5 seconds (excitation at 340 nm and 380 nm; emission at 510 nm) by fluorescent spectrophotometer (Shimadzu, Tokyo, Japan) at room temperature.

O=c1cc[nH]c(=O)[nH]1 [uracil]
infection-induced gut ROS after coingestion of uracil with URA− strain (DUOX; E. carotovora-pyrE::Tn5 plus uracil): normal level of infection-induced ROS
lowest concentration inducing gut ROS generation (DUOX; dose-dependent analysis, oral ingestion, adult Drosophila): ≥ 10 pM
ROS-inducing ability / DUOX activation (DUOX; nucleobases and pyrimidine analogs, 20 nM each, ingestion for 15 minutes): capable of activating DUOX
gut ROS generation (DUOX; uracil 20 nM for 1.5 hours, PLCβ-DUOX signaling-dependent (absent in DUOX-RNAi, PLCβ−/−)): generation of large amounts of gut ROS
requirement of Gαq for uracil-induced ROS generation (DUOX; uracil 20 nM for 1.5 hours, control vs Gαq−/− flies): required
uracil-induced ROS generation in presence of commensal bacteria in the gut (DUOX; uracil 20 nM, 1.5 hours, GF flies monoassociated with C. intestini, A. pomorum or L. plantarum): could not inhibit the ROS-generating ability of uracil
DUOX-dependent ROS generation in C. elegans (Ce-DUOX1): able to activate DUOX-dependent ROS generation
p38 MAPK activation (p38): p38 MAPK activation
gut cell apoptosis after long-term ingestion of uracil (gut cells): Extensive apoptosis in gut cells
Ca2+ mobilization (Drosophila S2 cells): Ca^2+ mobilization

— patent US10092566B2, “Composition for controlling a gut immunity and use thereof” (SEOUL NATIONAL UNIVERSITY R&DB FOUNDATION, priority 2013, dated 2018)
